Tested on: INS-1 832/3 cells
Assay: TAQMAN real-time quantitative RT-PCR of miRNA expression in INS-1 832/3 cells
Assay type: cell-based, rat
Procedure: INS-1 832/3 and 832/13 cells were maintained in RPMI 1640 with 10% FBS and 11 mM glucose. For GLP-1 treatment, GLP-1 (7-37) amide (ABCHEM) was added in the media in the presence of 16 mM glucose for 24 hours. Total RNA was extracted with TRIZOL as in Example 1. Rat islet isolation and treatment was as follows. Pancreatic islets of Langerhans were isolated from the pancreas of normal Sprague-Dawley rats (Charles River, Ind.) by collagenase digestion and discontinuous Ficoll gradient separation (15). Islets were cultured for 2 hours in RPMI 1640 medium with 11 mM glucose for recovery from the isolation process. Then 100-200 islets were treated with 50 nM GLP-1 in the media with 11 mM glucose for 24 hours. RNA was extracted with TRIZOL as in Example 1 for quantification of microRNA species.
Fluorogenic TAQMAN detector probes specific for miR-132 (Cat# TM457), miR-212 (Cat# TM515), miR-375 (Cat#TM564), and miR-217 (Cat#1133) were purchased from Applied Biosystems (Foster City, Calif.). The TAQMAN RT-PCR reactions were performed according to the manufacturer's instructions.
Relative miRNA levels for the miRNAs of interest were determined by real-time reverse transcription reaction using the ABI PRISM 7900 Sequence Detection System from Applied Biosystems (Foster City, Calif.) according to the manufacturer's protocol. Briefly, 10 ng of total RNA was mixed with 1 U MultiScribe Reverse Transcriptase, 0.25 U RNase Inhibitor, 3 μL hairpin-looped miRNA-specific RT primer, 1 mM dNTPs and 1× Reverse Transcription Buffer in a total volume of 15 μL. The mixture was incubated at 16° C. for 30 minutes, 42° C. for another 30 minutes, and the reaction was stopped by heating to 85° C. for 5 minutes. Real time PCR reaction was set up in 20 μL volume with 1.33 μL first strand cDNA, 1× TAQMAN MicroRNA Assay Mix and 1× TAQMAN Universal PCR Master Mix. After activation of the AMPLITAQ Gold DNA polymerase at 95° C. for 10 minutes, 40 cycles of two-step PCR were run (95° C. for 15 seconds and 60° C. for 60 seconds). Data were collected and analyzed with SDS v.2.2.2 software (Applied Biosystems). 4.5S RNA or U6 probe (Applied Biosystems) was used as a reference to determine the relative abundance of each miRNA in different samples. TAQMAN RT-PCR was performed according the manufacturer's instructions.
The absolute miRNA levels were determined by reverse transcription reactions in GeneAmp PCR system 9700 followed by amplification using the ABI PRISM 7900HT Sequence Detection System from Applied Biosystems (Foster City, Calif.) through 40 cycles. 4.5S RNA (H) probe (Cat#TM1716) or U6 (Cat#TM1973) was used as reference to determine the relative abundance of each miRNA in different samples. The induction of miR-132 and miR-212 expression by GLP-1 started around 4 hour post-GLP-1 treatment, peaked at 24 hours and was sustained up to 48 hours (FIG. 2).

[1] = 50 nM GLP-1, 50 nM Exendin-4, 5 μM IBMX, 1 μM Foskolin (FIG. 6A)

For GLP-1 (7-37) amide, the miR-132 expression [1] was “significantly increased”, the miR-212 expression [1] was “significantly increased” and the miR-375 expression [1] was “remained unchanged”. The “induction of miR-132 and miR-212 expression sustained up to” value (50 nM GLP-1 time course) was “up to 48 hours”, the “peak of induction of miR-132 and miR-212 expression” value (50 nM GLP-1 time course) was 24 h and the “start of induction of miR-132 and miR-212 expression, time post-GLP-1 treatment” value (50 nM GLP-1 time course) was “around 4 hour”. The “induction of miR-132 and miR-212 (subsequent TAQMAN analyses)” value (GLP-1 treatment) was “confirmed the induction” and the “induction of miR-217 (subsequent TAQMAN analyses)” value (GLP-1 treatment) was “not miR-217”.

From US20120034608A1, “MICRORNA AS A BIOMARKER OF PANCREATIC ISLET BETA-CELL ENGAGEMENT” (Merck Sharp & Dohme Corp., priority 2009, published 2012)
